Experimental findings from patent US20250195513A1, “DEGRADATION OF IRAK4 BY CONJUGATION OF IRAK4 INHIBITORS WITH E3 LIGASE LIGAND AND METHODS OF USE” (BeiGene, Ltd., priority 2022, published 2025) are described below.

Experiment [1] addresses T1, IRAK4 (Homo sapiens, UniProt Q9NWZ3).
T1 construct: endogenous in cells; host or cells: Karpas299
T1 sequence (Q9NWZ3 1-460): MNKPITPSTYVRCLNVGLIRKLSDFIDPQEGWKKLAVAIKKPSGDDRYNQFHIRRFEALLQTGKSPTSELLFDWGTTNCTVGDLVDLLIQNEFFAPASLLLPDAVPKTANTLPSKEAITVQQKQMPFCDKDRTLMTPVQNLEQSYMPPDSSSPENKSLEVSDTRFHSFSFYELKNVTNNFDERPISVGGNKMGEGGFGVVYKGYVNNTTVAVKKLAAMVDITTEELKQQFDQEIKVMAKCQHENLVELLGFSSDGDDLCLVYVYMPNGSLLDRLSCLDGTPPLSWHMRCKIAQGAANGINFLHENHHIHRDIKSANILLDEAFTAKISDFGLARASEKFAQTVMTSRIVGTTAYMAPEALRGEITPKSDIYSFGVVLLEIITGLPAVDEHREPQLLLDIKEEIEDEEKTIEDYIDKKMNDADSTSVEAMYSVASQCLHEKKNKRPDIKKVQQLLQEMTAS
The experiment can be described thus: IRAK4 Degradation Assay (Karpas299, HTRF/TR-FRET). The experiment is classed as cell-based. To be noted: Karpas-299 cells; for Dmax: maximum percentage of degradation. An outline of the steps: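 Compound potency as DC50 (IC50) came from four-parameter fits of percent IRAK4 degradation. IRAK4 was measured by HTRF (665/620 nm) in lysates of Karpas299 cells seeded at 0.2 million per well. Cells had been treated with compound dilutions for 5 or 24 h.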
Background: TR-FRET usually uses a lanthanide donor and a delayed reading to cut background.

The target in experiment [2] is T1, IRAK4. The experiment can be described thus: IRAK4 Degradation Assay with Human Serum (Karpas299, HTRF/TR-FRET). It is filed as cell-based. The following applies: Karpas-299 in human serum, 24 hrs treatment; for DC50: read-out: IRAK4 degradtion with human serum assay DC50; for Dmax: read-out: IRAK4 degradtion with human serum assay Dmax (%). An outline of the steps: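 Remaining IRAK4 measured by TR-FRET immunoassay on lysates of Karpas299 cells exposed 24 h to compound dilution series in human serum AB. DC50 derived from a Hill-slope fit of % degradation versus concentration.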

The mark [3] stands for this setting: 5 h treatment, read-out: IRAK4 in Karpas-299 (5 h) Dmax (%).
[4] abbreviates: 5 h treatment, read-out: IRAK4 in Karpas-299 (5 h) DC50.
[5] abbreviates: 24 h treatment, read-out: IRAK4 in Karpas-299 (24 h) Dmax (%).
The mark [6] stands for this setting: 24 h treatment, read-out: IRAK4 in Karpas-299 (24 h) DC50.

Molecules are shown by their SMILES.

For `CC(C)(O)c1cc2nn(C3CCN(C4CCN(C(=O)[C@@H]5CCN(c6cc(F)c([C@H]7CCC(=O)NC7=O)c(F)c6)C5)CC4)CC3)cc2cc1NC(=O)c1ccc2cc(C#N)cnn12` [Example 347, 3-cyano-N-(2-(1′-((R)-1-(4-((R)-2,6-dioxopiperidin-3-yl)-3,5-difluorophenyl)pyrrolidine-3-carbonyl)-[1,4′-bipiperidin]-4-yl)-6-(2-hydroxypropan-2-yl)-2H-indazol-5-yl)pyrrolo[1,2-b]pyridazine-7-carboxamide], the results for the Dmax in experiment [1] (setting [3]), in experiment [1] (setting [5]) and in experiment [2] were 93%, 96% and 103%, respectively. For the same compound, the DC50 (commonly the midpoint of the concentration-degradation curve) was 2.2 nM in experiment [1] (setting [4]), 1.3 nM in experiment [1] (setting [6]) and 25 nM in experiment [2].
Take `Cn1c(=O)n(C2CCC(=O)NC2=O)c2cccc(CCCN3CCN([C@H]4CC[C@H](n5cc6cc(NC(=O)c7ccc8cc(C#N)cnn78)c(C(C)(C)O)cc6n5)CC4)CC3)c21` (stereo partly shown) [Example 348, 3-cyano-N-(2-((1r,4r)-4-(4-(3-(1-(2,6-dioxopiperidin-3-yl)-3-methyl-2-oxo-2,3-dihydro-1H-benzo[d]imidazol-4-yl)propyl)piperazin-1-yl)cyclohexyl)-6-(2-hydroxypropan-2-yl)-2H-indazol-5-yl)pyrrolo[1,2-b]pyridazine-7-carboxamide]: the Dmax (usually the greatest extent of degradation seen) was found to be 94% in experiment [1] (setting [5]) and 95% in experiment [2]. The DC50 in experiment [1] (setting [6]) is 0.4 nM; in experiment [2], 6.6 nM.
On to `CC(C)(O)c1cc2nn(C34CC(N5CCN(CCC6CCN(c7cc(F)c([C@H]8CCC(=O)NC8=O)c(F)c7)CC6)CC5)(C3)C4)cc2cc1NC(=O)c1ccc2cc(C#N)cnn12` [Example 349, (R)-3-cyano-N-(2-(3-(4-(2-(1-(4-(2,6-dioxopiperidin-3-yl)-3,5-difluorophenyl)piperidin-4-yl)ethyl)piperazin-1-yl)bicyclo[1.1.1]pentan-1-yl)-6-(2-hydroxypropan-2-yl)-2H-indazol-5-yl)pyrrolo[1,2-b]pyridazine-7-carboxamide], for which the figures for the Dmax in experiment [1] (setting [3]), in experiment [1] (setting [5]) and in experiment [2] were 94%, 97% and 98%, respectively. For the same compound, the DC50 in experiment [1] (setting [4]) worked out at 3.9 nM; in experiment [1] (setting [6]) it was 2.4 nM; in experiment [2] it was 7.7 nM.
As for `Cn1c(=O)n(C2CCC(=O)NC2=O)c2cccc(CCCN3CCN(C45CC(n6cc7cc(NC(=O)c8ccc9cc(C#N)cnn89)c(C(C)(C)O)cc7n6)(C4)C5)CC3)c21` (stereo not shown) [Example 350, 3-cyano-N-(2-(3-(4-(3-(1-(2,6-dioxopiperidin-3-yl)-3-methyl-2-oxo-2,3-dihydro-1H-benzo[d]imidazol-4-yl)propyl)piperazin-1-yl)bicyclo[1.1.1]pentan-1-yl)-6-(2-hydroxypropan-2-yl)-2H-indazol-5-yl)pyrrolo[1,2-b]pyridazine-7-carboxamide], the Dmax in experiment [1] (setting [5]) was found to be 89%; in experiment [2], 97%. In addition, the DC50 in experiment [1] (setting [6]) amounted to 2.1 nM; in experiment [2] it was 16 nM.
The like results for `CC(C)(O)c1cc2nn([C@H]3CC[C@H](N4CCN(CC5CCN(c6ccc7c(c6)CN(C6CCC(=O)NC6=O)C7=O)CC5)CC4)CC3)cc2cc1NC(=O)c1ccc2cc(C#N)cnn12` (stereo partly shown) [Example 353, 3-cyano-N-(2-((1r,4r)-4-(4-((1-(2-(2,6-dioxopiperidin-3-yl)-1-oxoisoindolin-5-yl)piperidin-4-yl)methyl)piperazin-1-yl)cyclohexyl)-6-(2-hydroxypropan-2-yl)-2H-indazol-5-yl)pyrrolo[1,2-b]pyridazine-7-carboxamide] were, in that order, 95%, 88%, 0.8 nM and 3.5 nM.
The like results for `N#Cc1cnn2c(C(=O)Nc3cc4cn([C@H]5CC[C@H](N6CCN(C(=O)C7CN(c8cc(F)c([C@H]9CCC(=O)NC9=O)c(F)c8)C7)CC6)CC5)nc4c4c3OCO4)ccc2c1` [Example 355] were, in that order, 95%, 73%, 0.4 nM and 75 nM.
On to `CC(C)(O)c1cc2nn([C@H]3CC[C@H](N4CCN(CCCc5cc(F)c([C@H]6CCC(=O)NC6=O)c(F)c5)CC4)CC3)cc2cc1NC(=O)c1ccc2cc(C#N)cnn12` [Example 357, 3-cyano-N-(2-((1R,4r)-4-(4-(3-(4-((R)-2,6-dioxopiperidin-3-yl)-3,5-difluorophenyl)propyl)piperazin-1-yl)cyclohexyl)-6-(2-hydroxypropan-2-yl)-2H-indazol-5-yl)pyrrolo[1,2-b]pyridazine-7-carboxamide], for which the Dmax in experiment [1] (setting [5]) and in experiment [2] was 97% each time. For the same compound, the DC50 in experiment [1] (setting [6]) is 1.1 nM; in experiment [2] it was 12 nM.
With `CC(C)(O)c1cc2nn([C@H]3CC[C@H](N4C[C@@H]5CN(CC6CN(c7cc(F)c(C8CCC(=O)NC8=O)c(F)c7)C6)C[C@H]5C4)CC3)cc2cc1NC(=O)c1ccc2cc(C#N)cnn12` (stereo partly drawn) [Example 359, 3-cyano-N-(2-((1S,4r)-4-((3aS,6aS)-5-((1-(4-((R)-2,6-dioxopiperidin-3-yl)-3,5-difluorophenyl)azetidin-3-yl)methyl)hexahydropyrrolo[3,4-c]pyrrol-2(1H)-yl)cyclohexyl)-6-(2-hydroxypropan-2-yl)-2H-indazol-5-yl)pyrrolo[1,2-b]pyridazine-7-carboxamide], the Dmax in experiment [1] (setting [5]) was 97%; in experiment [2], 103%. In addition, the figures for the half-maximal degradation concentration (DC50) in experiment [1] (setting [6]) and in experiment [2] were 2.4 nM and 4.2 nM, respectively.
For `CC(C)(O)c1cc2nn(C3CCC(N4C[C@@H]5CN(C6CCN(c7cc(F)c([C@H]8CCC(=O)NC8=O)c(F)c7)CC6)C[C@H]5C4)CC3)cc2cc1NC(=O)c1ccc2cc(C#N)cnn12` (stereo partly drawn) [Example 361, 3-cyano-N-(2-((1R,4r)-4-((3aR,6aR)-5-(1-(4-((R)-2,6-dioxopiperidin-3-yl)-3,5-difluorophenyl)piperidin-4-yl)hexahydropyrrolo[3,4-c]pyrrol-2(1H)-yl)cyclohexyl)-6-(2-hydroxypropan-2-yl)-2H-indazol-5-yl)pyrrolo[1,2-b]pyridazine-7-carboxamide] the same measures were 97%, 93%, 4.3 nM and 5 nM.
The like results for `C[C@@H]1CN([C@H]2C[C@@H](c3cc(F)c([C@H]4CCC(=O)NC4=O)c(F)c3)C2)CCN1[C@H]1CC[C@H](n2cc3cc(NC(=O)c4ccc5cc(C#N)cnn45)c(C(C)(C)O)cc3n2)CC1` [Example 365, 3-cyano-N-(2-((1R,4r)-4-((R)-4-((1S,3S)-3-(4-((R)-2,6-dioxopipendin-3-yl)-3,5-difluorophenyl)cyclobutyl)-2-methylpiperazin-1-yl)cyclohexyl)-6-(2-hydroxypropan-2-yl)-2H-indazol-5-yl)pyrrolo[1,2-b]pyridazine-7-carboxamide] were, in that order, 93%, 93%, 1.1 nM and 7.7 nM.
On to `C[C@@H]1CN([C@H]2C[C@H](c3cc(F)c([C@H]4CCC(=O)NC4=O)c(F)c3)C2)CCN1[C@H]1CC[C@H](n2cc3cc(NC(=O)c4ccc5cc(C#N)cnn45)c(C(C)(C)O)cc3n2)CC1` [Example 366, 3-cyano-N-(2-((1R,4r)-4-((R)-4-((1R,3R)-3-(4-((R)-2,6-dioxopiperidin-3-yl)-3,5-difluorophenyl)cyclobutyl)-2-methylpiperazin-1-yl)cyclohexyl)-6-(2-hydroxypropan-2-yl)-2H-indazol-5-yl)pyrrolo[1,2-b]pyridazine-7-carboxamide], for which the Dmax in experiment [1] (setting [5]) worked out at 98%; in experiment [2], 97%. Besides, the DC50 in experiment [1] (setting [6]) was found to be 1.4 nM; in experiment [2], 14 nM.
For `CC(C)(O)C[C@H]1CN(CCc2cc(F)c([C@H]3CCC(=O)NC3=O)c(F)c2)CCN1[C@H]1CC[C@H](n2cc3cc(NC(=O)c4ccc5cc(C#N)cnn45)c(C(C)(C)O)cc3n2)CC1` [Example 369, 3-cyano-N-(2-((1S,4r)-4-((S)-4-(4-((R)-2,6-dioxopiperidin-3-yl)-3,5-difluorophenethyl)-2-(2-hydroxy-2-methylpropyl)piperazin-1-yl)cyclohexyl)-6-(2-hydroxypropan-2-yl)-2H-indazol-5-yl)pyrrolo[1,2-b]pyridazine-7-carboxamide] the same measures were 96%, 97%, 0.6 nM and 3 nM.
